US11524004B2, “Analogs of proxisome proliferator activated receptor (PPAR) agonists and methods of using the same” (The University of Toledo, priority 2013, dated 2022)

Assays:
[1] = tested on: Human bone marrow-derived mesenchymal stem cells (MSCs); assay: MSC osteogenesis assay: Alizarin Red S osteoblast mineralization, with concomitant assessment of fat cell formation; type: cell-based; conditions: for osteogenic formation from MSCs: MSCs in osteogenic medium, test agent at 1, 2, 4, 10 or 20 μM every 2nd day for 21 days, Alizarin Red S; for profile of fat (AD) versus osteogenic (OS) effects during dose progression (bone should predominate): dose progression 1-20 μM
Experimental: Human bone marrow-derived mesenchymal stem cells (MSCs) were taken through 2-3 passages and distributed across a 24 well plate at a density of 1×10^5 cells/cm^2. The plates were cultured in α-MEM with 20% FBS for 1 day at 37° C. On day 2 the medium was switched to osteogenic media (Stem X-Vivo, R&D System, Minneapolis, Minn.) containing 10% FBS plus 50 μg/ml ascorbic acid and 3 mM β-glycerol-phosphate. MSCs were cultured in the osteogenic medium without (vehicle negative control) or with test agents at 1, 2, 4, 10 or 20 μM supplied every 2nd day for 21 days. GW 0427 (standard PPAR ligand as positive control) was delivered by the same regimen on every plate to account for experimental variation.
Plates were washed twice with ice-cold PBS and incubated in 50 mM Tris-HCl (pH 7.6). The cells were treated with 2% Alizarin Red S (pH 4.2) for 10 min and then washed with distilled water. Stained cells were visualized by phase-contrast microscopy to determine cell morphology and to verify the presence of mineralized nodules (red images). The intensities of the images were assessed by Image-Pro Analyzer (Media Cybernetics, Inc., Bethesda, Md.).

SMILES	osteogenic formation from MSCs [1]	profile of fat (AD) versus osteogenic (OS) effects during dose progression (bone should predominate) ([1]; MSC assay)	further results
Cc1nc(-c2ccc(C(F)(F)F)cc2)sc1CNc1ccc(C=CC(=O)O)cc1 [BK-4-03, 4-[N-[5-Methylene-4-methyl-2-[4-(trifluoromethyl)phenyl]thiazole]]aminocinnamic Acid]	Increased osteogenic formation		
Cc1nc(-c2ccc(C(F)(F)F)cc2)sc1CSc1ccc(C=CC(=O)O)cc1 [BK-4-04, 4-Thio-[5-methylene-4-methyl-2-[4-(trifluoromethyl)phenyl]thiazole]cinnamic Acid]	Increased osteogenic formation		
Cc1cc(SCc2sc(-c3ccc(C(F)(F)F)c(F)c3)nc2C)ccc1OCC(=O)O [GW0742, reference compound]		initially demonstrates such a preference	OS activity as dose range continued to 10 and 20 uM ([1]; MSC assay, 10 and 20 uM, estimated, averaged effects): decreased
Cc1nc(-c2ccc(C(F)(F)F)c(F)c2)sc1COc1ccc(C=CC(=O)O)cc1 [JM-4-57, 4-[Oxo-[5-methylene-4-methyl-2-[3-fluoro-4-(trifluromethyl)phenyl]thiazole]]cinnamic Acid]	Increased osteogenic formation		concentration at which osteogenic activity peaks ([1]; MSCs, 21 days, doses 1-20 μM): 10 µM
Cc1nc(-c2ccccc2)sc1CCOc1ccc(C=CC(=O)O)cc1 [BK-3-51, 4-[[4-Methyl-2-phenylthiazol-5-yl]methyl]methoxycinnamic Acid]			melting point: 209 to 211 °C
Cc1nc(-c2ccc(C(F)(F)F)c(F)c2)sc1CNc1ccc(C=CC(=O)O)cc1 [BK-4-30, 4-[N-[5-methylene-4-methyl-2-[3-fluoro-4-(trifluoromethyl)phenyl]thiazole]]aminocinnamic Acid]		not as suitable	
Cc1nc(-c2ccc(C(F)(F)F)cc2)sc1CN(C)c1ccc(C=CC(=O)O)cc1 [BK-4-15, 4-[N-Methyl-N-[5-methylene-4-methyl-2-[4-(trifluoromethyl)phenyl]thiazole]]aminocinnamic Acid]	Increased osteogenic formation	most preferred profile	
